The subject of data set [1] is MT-4 cells. The data set is described as follows: in vitro. The note with it: uninfected MT-4 cells, same protocol as Test A, 5 days, CellTiter-Glo. The method, boiled down: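 Cytoprotection read-out: CellTiter-Glo chemiluminescence after 5 days at 37 °C of HIV-IIIb-infected MT-4 cells (m.o.i. 0.003) with compound in 10-point 3-fold dilutions, quadruplicate, 10% FBS. Cytotoxicity (CC50) measured identically without virus.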

Data set [2] deals with HIV-IIIb. As to the kind of experiment: Test A: Antiviral assay in MT4 cells. The data set is classed as cell-based, HIV-1. The note with it: percent inhibition of virus-induced cell killing, from dose response curve at 2 uM drug; MT-4 cells infected with HIV-IIIb, 5 days, CellTiter-Glo.

In turn, `NC(=O)c1cc(-c2cccnc2[C@H](Cc2cc(F)cc(F)c2)NC(=O)Cn2nc(C(F)F)c3c2C2CC2C3)ccc1F` (stereo partly drawn) [Example 163C, 5-(2-((1S)-1-(2-(3-(difluoromethyl)-4,4-a,5,5a-tetrahydro-1H-cyclopropa[4,5]cyclopenta[1,2-c]pyrazol-1-yl)acetamido)-2-(3,5-difluorophenyl)ethyl)pyridin-3-yl)-2-fluorobenzamide] showed a half-maximal cytotoxic concentration (CC50) in data set [1] of 27.4 µM. Moreover, the “% inhibition at 2 μM” value in data set [2] turned out to be 105%.
In data set [1], `O=C(N[C@@H](Cc1cc(F)cc(F)c1)c1ncccc1-c1ccc(Cl)cc1)C(c1c[nH]c2ccc(F)cc12)C(F)(F)F` (single isomer, unassigned) [Example 36G] displayed a CC50 of 6.93 µM. In addition, in data set [2], the “% inhibition at 2 μM” value stood at 0%.
For `CN(C)C(C(=O)N[C@@H](Cc1cc(F)cc(F)c1)c1ncccc1-c1ccc(F)c(C(N)=O)c1)c1ccc(F)cc1` (single isomer, unassigned) [Example 590], in that order: 38.6 µM and 13%.

The values are drawn from patent US9540343B2 (Gilead Sciences, Inc., priority 2011, dated 2017).
